This passage reports IC50 results from patent US20260356856A1, “KRAS G12S AND G12C INHIBITORS” (MIRATI THERAPEUTICS, INC., priority 2023, published 2026).

The target in assay [1] is T1, KRas-mediated phosphorylation of ERK in A549 cells (Homo sapiens, UniProt P01116, G12S).
T1 construct: pERK HTRF read-out
The assay is described as follows: Inhibition of KRas-mediated phosphorylation of ERK (HTRF), A549 cells. In kind it is cell-based. As to conditions: HTRF pERK, 3 h incubation.

Another assay concerns the target T2, KRas G12C (Homo sapiens, UniProt P01116, G12C).
T2 construct: Biotinylated KRas (corresponding to amino acids 1-169, produced at Accelegan Inc.); biotin (biotinylated); purchased Accelegan Inc
The assay is described as follows: KRas binding assay, TR-FRET displacement of Cy5 labelled tracer. The conditions noted are these: 60-minute incubation at room temperature, 1% DMSO, pH 7.5. A digest of the protocol: (§1)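 IC50 came from fitting POC values with a four-parameter equation. Signal was read after one hour at room temperature. Protein was biotin-tagged KRas 1-169 captured by terbium streptavidin, with compound in 1% DMSO (final).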
(In TR-FRET formats the signal depends on donor and acceptor labels being close together.)

The target of another assay is T3, KRas G12S (Homo sapiens, UniProt P01116, G12S).
T3 construct: Biotinylated KRas (corresponding to amino acids 1-169, produced at Accelegan Inc.); biotin (biotinylated); purchased Accelegan Inc
The description is as above. As to conditions: 60-minute incubation at room temperature, 1% DMSO, pH 7.5. A digest of the protocol: as §1

For the next assay, the target named is T4, KRas WT (Homo sapiens, UniProt P01116).
T4 construct: Biotinylated KRas (corresponding to amino acids 1-169, produced at Accelegan Inc.); biotin (biotinylated); purchased Accelegan Inc
The description is as above. As to conditions: 60-minute incubation at room temperature, 1% DMSO, pH 7.5. Summed up:
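Assay buffer was HEPES (50 mM, pH 7.5) with MgCl2 (5 mM), DTT (1 mM) and Tween-20 (0.005%). Biotinylated KRas spanning residues 1-169 met tracer, terbium streptavidin and compound (1% DMSO, final) for 60 minutes at ambient temperature before reading. POC values were fitted for IC50.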

Assay [2] concerns the target T5, KRas-mediated phosphorylation of ERK in MKN1 cells (Homo sapiens, UniProt P01116).
T5 construct: pERK HTRF read-out
As to the kind of experiment: Inhibition of KRas-mediated phosphorylation of ERK (HTRF), MKN1 cells. In kind it is cell-based. As to conditions: MKN1 cells (KRas WT); HTRF pERK; 3 h incubation. How it is done:
Inhibition of KRas Phosphorylation of ERK (HTRF) by Exemplary Compounds of Formula (Ia) or (Ib)
Cisbio HTRF Advanced pERK Assay Catalog #64AERPEH • Cells: MKN1, PSN1 • Procedure: • 1. Day 1: Seed 6,000 cells/well −25 μl/well in 384-well white solid bottom plate; RPM1_10% FBS. Incubate overnight at 37 °C/5% CO2. • 2.

T2 sequence (P01116 1-169 isoform P01116-2 G12C): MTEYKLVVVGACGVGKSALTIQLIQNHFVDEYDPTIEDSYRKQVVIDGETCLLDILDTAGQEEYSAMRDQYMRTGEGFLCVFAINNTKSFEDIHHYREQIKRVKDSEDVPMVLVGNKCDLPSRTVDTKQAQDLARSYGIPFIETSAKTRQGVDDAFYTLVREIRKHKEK
T4 sequence (P01116 1-169 isoform P01116-2): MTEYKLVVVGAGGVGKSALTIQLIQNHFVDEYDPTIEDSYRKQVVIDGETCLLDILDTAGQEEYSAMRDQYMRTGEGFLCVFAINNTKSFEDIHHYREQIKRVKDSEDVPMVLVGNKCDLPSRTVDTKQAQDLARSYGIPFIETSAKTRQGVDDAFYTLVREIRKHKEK
T1 sequence (P01116 1-188 isoform P01116-2 G12S): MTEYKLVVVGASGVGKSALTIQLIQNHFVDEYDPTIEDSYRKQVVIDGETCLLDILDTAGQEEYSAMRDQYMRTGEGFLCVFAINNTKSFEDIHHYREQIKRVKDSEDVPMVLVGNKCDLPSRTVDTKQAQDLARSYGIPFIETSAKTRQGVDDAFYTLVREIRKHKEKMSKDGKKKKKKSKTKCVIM
T5 sequence (P01116 1-188 isoform P01116-2): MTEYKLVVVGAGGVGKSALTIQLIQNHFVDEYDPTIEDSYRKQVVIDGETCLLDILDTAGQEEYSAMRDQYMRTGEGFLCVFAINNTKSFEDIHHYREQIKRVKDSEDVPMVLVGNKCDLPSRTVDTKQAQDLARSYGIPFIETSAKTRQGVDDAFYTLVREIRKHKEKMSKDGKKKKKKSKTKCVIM
T3 sequence (P01116 1-169 isoform P01116-2 G12S): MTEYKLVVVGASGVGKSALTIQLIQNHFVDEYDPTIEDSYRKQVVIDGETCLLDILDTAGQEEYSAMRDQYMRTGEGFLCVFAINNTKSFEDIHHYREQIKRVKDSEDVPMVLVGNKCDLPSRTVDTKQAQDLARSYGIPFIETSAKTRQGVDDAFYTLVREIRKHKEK

With `CCc1c(F)ccc2cc(O)cc(-c3ncc4c(N5CCC(C(=O)n6ccc(C)n6)C6CC65)nc(OC[C@@]56CCCN5C[C@H](F)C6)nc4c3F)c12` (stereo partly drawn) [Example 97, (2-(7-(8-ethyl-7-fluoro-3-hydroxynaphthalen-1-yl)-8-fluoro-2-(((2R,7aS)-2-fluorotetrahydro-1H-pyrrolizin-7a(5H)-yl)methoxy)pyrido[4,3-d]pyrimidin-4-yl)-2-azabicyclo[4.1.0]heptan-5-yl)(3-methyl-1H-pyrazol-1-yl)methanone], the IC50 (in general, the concentration that gives 50% inhibition) turned out to be 2120 nM in assay [1]; 395 nM on KRas G12C; 201 nM at KRas G12S; 125 nM at KRas WT; 2850 nM in assay [2].

On to `CCc1c(F)ccc2cc(O)cc(-c3ncc4c(N5CC6CCC(C(=O)n7ccc(C)n7)(C6)C5)nc(OC[C@@]56CCCN5C[C@H](F)C6)nc4c3F)c12` (stereo partly drawn) [Example 106, (3-(7-(8-ethyl-7-fluoro-3-hydroxynaphthalen-1-yl)-8-fluoro-2-(((2R,7aS)-2-fluorotetrahydro-1H-pyrrolizin-7a(5H)-yl)methoxy)pyrido[4,3-d]pyrimidin-4-yl)-3-azabicyclo[3.2.1]octan-1-yl)(3-methyl-1H-pyrazol-1-yl)methanone], for which the IC50 in assay [1] turned out to be 584 nM; at KRas G12C, 22 nM; on KRas G12S, 14 nM; at KRas WT it was 40 nM; in assay [2] it was 529 nM.

Regarding `CCc1c(F)ccc2cc(O)cc(-c3ncc4c(N5CC6CC5CC6C(=O)n5ccc(C)n5)nc(OC[C@@]56CCCN5C[C@H](F)C6)nc4c3F)c12` (stereo partly drawn) [Example 90, (2-(7-(8-ethyl-7-fluoro-3-hydroxynaphthalen-1-yl)-8-fluoro-2-(((2R,7aS)-2-fluorotetrahydro-1H-pyrrolizin-7a(5H)-yl)methoxy)pyrido[4,3-d]pyrimidin-4-yl)-2-azabicyclo[2.2.1]heptan-5-yl)(3-methyl-1H-pyrazol-1-yl)methanone], the half-inhibitory concentration (IC50) in assay [1] was above 10000 nM; on KRas G12C, 260 nM; at KRas G12S it was 286 nM; at KRas WT it was 233 nM; in assay [2], 9190 nM.

For `CCc1c(F)ccc2cc(O)cc(-c3ncc4c(NCCCC(=O)n5ccc(C)n5)nc(OC[C@@]56CCCN5C[C@H](F)C6)nc4c3F)c12` [Example 111, 4-((7-(8-ethyl-7-fluoro-3-hydroxynaphthalen-1-yl)-8-fluoro-2-(((2R,7aS)-2-fluorotetrahydro-1H-pyrrolizin-7a(5H)-yl)methoxy)pyrido[4,3-d]pyrimidin-4-yl)amino)-1-(3-methyl-1H-pyrazol-1-yl) butan-1-one], the IC50 in assay [1] was 16 nM; at KRas G12C it was below 2 nM; at KRas G12S it was 3 nM; at KRas WT, 13 nM; in assay [2] it was 219 nM.

Consider `CCc1c(F)ccc2cc(O)cc(-c3ncc4c(N5CCC(CC(=O)n6ccc(C)n6)C5)nc(OC[C@@]56CCCN5C[C@H](F)C6)nc4c3F)c12` (stereo partly drawn) [Example 113, 2-(1-(7-(8-ethyl-7-fluoro-3-hydroxynaphthalen-1-yl)-8-fluoro-2-(((2R,7aS)-2-fluorotetrahydro-1H-pyrrolizin-7a(5H)-yl)methoxy)pyrido[4,3-d]pyrimidin-4-yl)pyrrolidin-3-yl)-1-(3-methyl-1H-pyrazol-1-yl) ethan-1-one], for which the half-inhibitory concentration (IC50) in assay [1] was 110 nM; at KRas G12C, 137 nM; at KRas G12S it was 31 nM; at KRas WT, 78 nM; in assay [2] it was 3150 nM.

In the case of `CCc1c(F)ccc2cc(O)cc(-c3ncc4c(N5CC(C(=O)n6ccc(C)n6)C6(CC6)C5)nc(OC[C@@]56CCCN5C[C@H](F)C6)nc4c3F)c12` (stereo partly drawn) [Example 119, (5-(7-(8-ethyl-7-fluoro-3-hydroxynaphthalen-1-yl)-8-fluoro-2-(((2R,7aS)-2-fluorotetrahydro-1H-pyrrolizin-7a(5H)-yl)methoxy)pyrido[4,3-d]pyrimidin-4-yl)-5-azaspiro[2.4]heptan-7-yl)(3-methyl-1H-pyrazol-1-yl)methanone], the IC50 in assay [1] is above 10000 nM; on KRas G12C, 171 nM; at KRas G12S, 183 nM; at KRas WT it was 402 nM; in assay [2], above 10000 nM.

Consider `Cc1ccn(C(=O)C2CCN(c3nc(OC[C@@]45CCCN4C/C(=C\F)C5)nc4c(F)c(-c5ccc(F)c6sc(N)c(C#N)c56)c(Cl)cc34)CC2)n1` [Example 135, 2-amino-4-(6-chloro-8-fluoro-2-(((S,Z)-2-(fluoromethylene)tetrahydro-1H-pyrrolizin-7a(5H)-yl)methoxy)-4-(4-(3-methyl-1H-pyrazole-1-carbonyl)piperidin-1-yl)quinazolin-7-yl)-7-fluorobenzo[b]thiophene-3-carbonitrile], for which the half-maximal inhibitory concentration (IC50) in assay [1] is 6 nM; at KRas G12C it was 9 nM; at KRas G12S, 6 nM; at KRas WT, 11 nM; in assay [2] it was 83 nM.

As to `CCc1c(F)ccc2cc(O)cc(-c3ncc4c(N5CCC(C(=O)N(C)C(=O)C(C)C)CC5)nc(OC[C@@]56CCCN5C[C@H](F)C6)nc4c3F)c12` [Example 166, 1-(7-(8-ethyl-7-fluoro-3-hydroxynaphthalen-1-yl)-8-fluoro-2-(((2R,7aS)-2-fluorotetrahydro-1H-pyrrolizin-7a(5H)-yl)methoxy)pyrido[4,3-d]pyrimidin-4-yl)-N-isobutyryl-N-methylpiperidine-4-carboxamide], the half-inhibitory concentration (IC50) in assay [1] was 1780 nM; on KRas G12C it was 310 nM; at KRas G12S it was 203 nM; on KRas WT, 229 nM; in assay [2], 622 nM.

For `CCc1c(F)ccc2cc(O)cc(-c3ncc4c(N5C[C@@H]6[C@H](C5)[C@@H]6C(=O)n5ccc(C)n5)nc(OC[C@@]56CCCN5C[C@H](F)C6)nc4c3F)c12` [Example 114, ((1R,5S,6R)-3-(7-(8-ethyl-7-fluoro-3-hydroxynaphthalen-1-yl)-8-fluoro-2-(((2R,7aS)-2-fluorotetrahydro-1H-pyrrolizin-7a(5H)-yl)methoxy)pyrido[4,3-d]pyrimidin-4-yl)-3-azabicyclo[3.1.0]hexan-6-yl)(3-methyl-1H-pyrazol-1-yl)methanone], the IC50 is above 10000 nM in assay [1]; 776 nM on KRas G12C; 664 nM on KRas G12S; 1180 nM at KRas WT; 7830 nM in assay [2].

With `Cc1ccn(C(=O)C23CCC(CN(c4nc(OC[C@@]56CCCN5C[C@H](F)C6)nc5c(F)c(-c6ccc(F)c7sc(N)c(C#N)c67)c(Cl)cc45)C2)C3)n1` (stereo partly drawn) [Example 183, 2-amino-4-(6-chloro-8-fluoro-2-(((2R,7aS)-2-fluorotetrahydro-1H-pyrrolizin-7a(5H)-yl)methoxy)-4-(1-(3-methyl-1H-pyrazole-1-carbonyl)-3-azabicyclo[3.2.1]octan-3-yl)quinazolin-7-yl)-7-fluorobenzo[b]thiophene-3-carbonitrile], the IC50 in assay [1] is 143 nM; at KRas G12C, 4 nM; on KRas G12S, 3 nM; at KRas WT, 5 nM; in assay [2] it was 192 nM.

In the case of `C#CCC1(C(=O)n2ccc(C)n2)CCN(c2nc(OC[C@@]34CCCN3C[C@H](F)C4)nc3c(F)c(-c4cc(O)cc5ccc(F)c(CC)c45)ncc23)C1` (stereo partly drawn) [Example 108, (1-(7-(8-ethyl-7-fluoro-3-hydroxynaphthalen-1-yl)-8-fluoro-2-(((2R,7aS)-2-fluorotetrahydro-1H-pyrrolizin-7a(5H)-yl)methoxy)pyrido[4,3-d]pyrimidin-4-yl)-3-(prop-2-yn-1-yl)pyrrolidin-3-yl)(3-methyl-1H-pyrazol-1-yl)methanone], the IC50 is 2000 nM in assay [1]; 339 nM at KRas G12C; 1320 nM on KRas G12S; 1040 nM at KRas WT; above 10000 nM in assay [2].

Regarding `CCc1c(F)ccc2cc(O)cc(-c3ncc4c(NCC5CC(C(=O)n6ccc(C)n6)C5)nc(OC[C@@]56CCCN5C[C@H](F)C6)nc4c3F)c12` (stereo partly drawn) [Example 93, (3-(((7-(8-ethyl-7-fluoro-3-hydroxynaphthalen-1-yl)-8-fluoro-2-(((2R,7aS)-2-fluorotetrahydro-1H-pyrrolizin-7a(5H)-yl)methoxy)pyrido[4,3-d]pyrimidin-4-yl)amino)methyl)cyclobutyl)(3-methyl-1H-pyrazol-1-yl)methanone], the 50% inhibitory concentration (IC50) in assay [1] turned out to be 26 nM; at KRas G12C, 4 nM; on KRas G12S, 3 nM; on KRas WT it was 13 nM; in assay [2], 325 nM.

Take `CCc1c(F)ccc2cc(O)cc(-c3ncc4c(N5CCC6CC6(C(=O)n6ccc(C)n6)CC5)nc(OC[C@@]56CCCN5C[C@H](F)C6)nc4c3F)c12` (stereo partly drawn) [Example 91, (4-(7-(8-ethyl-7-fluoro-3-hydroxynaphthalen-1-yl)-8-fluoro-2-(((2R,7aS)-2-fluorotetrahydro-1H-pyrrolizin-7a(5H)-yl)methoxy)pyrido[4,3-d]pyrimidin-4-yl)-4-azabicyclo[5.1.0]octan-1-yl)(3-methyl-1H-pyrazol-1-yl)methanone]: the concentration for half-maximal inhibition (IC50) in assay [1] was determined as 210 nM; at KRas G12C, 141 nM; at KRas G12S it was 62 nM; on KRas WT it was 317 nM; in assay [2] it was 853 nM.
